The source of these data is BindingDB's records for doi:10.1111/cbdd.12861 (Quaid-i-Azam University, 2017).

The target in test [1] is 5'-nucleotidase (Homo sapiens, UniProt P21589). Put plainly: Ecto-5'-Nucleotidase Inhibition Assay. The settings on record: pH 7.4; 37 °C. The method, then:
(§1) The enzymatic assay of both human and rat ecto-5'-nucleotidase were performed with slight modifications in the previously described method. […] Aliquots of 50 μL of each reaction mixture was transferred into CE mini vial and hydrodynamically injected into the capillary by using pressure of 0.5 psi for 5s. The electrosmatic separation of substrate and product peaks occurred by applying voltage of 15 kV. The concentration of product i.e. adenosine was estimated by calculating the area under its absorbance peak at 260 nm.

Test [2] has as its target T1, 5'-nucleotidase (Rattus norvegicus, UniProt P21588).
T1 sequence (P21588 whole entry): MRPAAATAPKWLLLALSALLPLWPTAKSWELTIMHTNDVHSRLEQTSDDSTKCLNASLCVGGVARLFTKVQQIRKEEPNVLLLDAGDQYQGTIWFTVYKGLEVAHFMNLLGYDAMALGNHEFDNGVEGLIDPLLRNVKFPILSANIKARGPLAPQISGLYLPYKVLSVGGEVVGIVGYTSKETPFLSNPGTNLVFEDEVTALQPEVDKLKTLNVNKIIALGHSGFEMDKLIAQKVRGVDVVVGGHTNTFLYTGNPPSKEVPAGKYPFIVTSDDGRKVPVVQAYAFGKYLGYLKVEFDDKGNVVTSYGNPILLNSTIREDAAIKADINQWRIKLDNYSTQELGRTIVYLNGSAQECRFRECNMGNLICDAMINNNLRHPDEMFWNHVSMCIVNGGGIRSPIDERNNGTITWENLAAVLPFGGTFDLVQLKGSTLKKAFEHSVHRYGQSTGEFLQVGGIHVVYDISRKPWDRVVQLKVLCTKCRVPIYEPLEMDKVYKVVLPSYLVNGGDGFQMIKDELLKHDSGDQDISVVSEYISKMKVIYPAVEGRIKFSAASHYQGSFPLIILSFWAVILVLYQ
The experiment in a line: Ecto-5'-Nucleotidase Inhibition Assay. The settings on record: pH 7.4; 37 °C. As to the method: as §1

For test [3], the target named is T2, Alkaline phosphatase, tissue-nonspecific isozyme (Bos taurus, UniProt P09487).
T2 sequence (P09487 whole entry): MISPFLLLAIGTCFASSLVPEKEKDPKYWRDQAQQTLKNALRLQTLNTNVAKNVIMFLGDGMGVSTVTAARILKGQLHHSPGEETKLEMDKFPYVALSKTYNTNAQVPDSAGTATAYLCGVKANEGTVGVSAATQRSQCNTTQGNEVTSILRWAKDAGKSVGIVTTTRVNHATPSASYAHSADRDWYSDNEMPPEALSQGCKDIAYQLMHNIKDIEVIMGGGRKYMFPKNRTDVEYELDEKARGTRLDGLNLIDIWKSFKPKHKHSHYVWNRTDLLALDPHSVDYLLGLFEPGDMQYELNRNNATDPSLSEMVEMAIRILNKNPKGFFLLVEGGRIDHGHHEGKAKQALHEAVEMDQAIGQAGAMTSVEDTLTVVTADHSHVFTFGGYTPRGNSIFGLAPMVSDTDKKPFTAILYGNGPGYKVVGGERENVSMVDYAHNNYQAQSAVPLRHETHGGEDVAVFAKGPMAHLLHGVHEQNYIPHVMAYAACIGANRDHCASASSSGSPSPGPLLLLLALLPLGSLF
The experiment in a line: Alkaline Phosphatase Inhibition Assay. The conditions noted are these: pH 9.8; 37 °C. As to the method:
(§2) The assay conditions were optimized with some changes in formerly reported spectrophotometric method. The composition of assay buffer of pH 9.8 was as: […], 0.05 mM ZnCl2 and 2.5 mM MgCl2. All compounds were tested at the initial concentration of 0.2 mM. A total assay volume of 50 μL contained 10 μL of tested compound, followed by the addition of 20 μL of either b-TNAP (1:800 times diluted enzyme in assay buffer) or 20 μL of c-IAP (1:800 times diluted enzyme in same assay buffer). After incubating the reaction mixture for 3-5 minutes at 37 °C, pre-read was taken by measuring luminescence with the help of microplate reader (BioTek FLx800, Instruments, Inc. USA). After that, 20 μL of substrate (CDP-Star) at the concentration of (110 μM) was added to the reaction mixture. Then the reaction mixture was again incubated for 15-20 min at 37 °C and after read was taken to measure the change in the luminescence. Total activity control (without inhibitor or negative control) was used for comparison of the activity of each test compound. L-phenylalanine (at concentration of 4 mM per well) and Levamisole (at concentration of 2 mM per well) were used as reference standards against calf intestinal alkaline phosphatase (c-IAP) and bovine tissue-nonspecific alkaline phosphatase (b-TNAP) respectively.

Test [4] concerns the target Intestinal-type alkaline phosphatase (Bos taurus, UniProt P19111). Put plainly: Alkaline Phosphatase Inhibition Assay. The conditions noted are these: pH 9.8; 37 °C. As to the method: as §2

Structures are written as SMILES.

Sequence of Intestinal-type alkaline phosphatase (P19111 whole entry): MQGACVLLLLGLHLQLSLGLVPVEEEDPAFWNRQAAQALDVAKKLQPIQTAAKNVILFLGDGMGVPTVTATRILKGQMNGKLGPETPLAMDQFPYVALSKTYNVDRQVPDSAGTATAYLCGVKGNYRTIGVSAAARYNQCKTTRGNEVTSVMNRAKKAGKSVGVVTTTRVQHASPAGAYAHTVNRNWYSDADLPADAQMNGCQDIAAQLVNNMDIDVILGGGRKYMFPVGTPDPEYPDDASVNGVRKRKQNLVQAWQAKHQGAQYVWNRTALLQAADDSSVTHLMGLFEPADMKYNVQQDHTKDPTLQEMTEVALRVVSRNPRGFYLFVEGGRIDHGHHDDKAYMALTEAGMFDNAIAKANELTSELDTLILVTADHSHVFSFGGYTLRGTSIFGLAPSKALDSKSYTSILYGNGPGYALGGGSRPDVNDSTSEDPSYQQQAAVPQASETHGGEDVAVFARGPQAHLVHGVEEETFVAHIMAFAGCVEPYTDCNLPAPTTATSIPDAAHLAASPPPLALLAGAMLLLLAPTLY
Sequence of 5'-nucleotidase (Homo sapiens, UniProt P21589) (P21589 whole entry): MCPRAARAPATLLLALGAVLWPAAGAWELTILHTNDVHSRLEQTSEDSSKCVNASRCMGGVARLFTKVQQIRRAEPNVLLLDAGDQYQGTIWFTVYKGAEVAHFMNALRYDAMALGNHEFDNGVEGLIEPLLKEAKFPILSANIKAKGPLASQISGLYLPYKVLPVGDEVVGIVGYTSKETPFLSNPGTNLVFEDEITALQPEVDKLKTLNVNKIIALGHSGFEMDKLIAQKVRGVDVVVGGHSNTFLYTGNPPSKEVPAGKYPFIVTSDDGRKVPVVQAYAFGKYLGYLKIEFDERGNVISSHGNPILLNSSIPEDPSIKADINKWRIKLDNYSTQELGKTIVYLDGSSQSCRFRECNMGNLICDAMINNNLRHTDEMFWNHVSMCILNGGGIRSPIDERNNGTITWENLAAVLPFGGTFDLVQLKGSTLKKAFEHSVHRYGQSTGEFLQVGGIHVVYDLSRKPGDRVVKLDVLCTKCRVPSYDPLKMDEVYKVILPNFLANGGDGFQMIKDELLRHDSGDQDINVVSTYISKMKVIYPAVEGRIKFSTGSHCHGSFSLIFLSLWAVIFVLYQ

By IC50 is commonly meant the concentration needed to halve the response being measured. A low value points to greater potency. Turning to `C/C(=N\NC(=O)c1ccncc1)N1N=C(c2ccc(F)cc2)CC1c1ccccc1` (stereo not given) [(E)-N'-(1-(3-(4-fluorophenyl)-5-phenyl-4,5-dihydro-1H-pyrazol-1yl)ethylidene)isonicotino hydrazide (3j)], the IC50 against 5'-nucleotidase [1] worked out at 0.19 µM; on 5'-nucleotidase [2], 0.36 µM; in test [3], 1.06 µM; in test [4], 3.98 µM.
Turning to `O=C(N/N=C/c1ccccc1O)c1ccncc1` [(E)-N'-(2'-hydroxybenzylidene)isonicotinohydrazide (3e)], the results for the IC50 (against 5'-nucleotidase [1]; against 5'-nucleotidase [2]; in test [4]) were 1.34 µM, 0.45 µM and 1.44 µM, respectively.
Consider `O=C(N/N=C/c1cccc([N+](=O)[O-])c1)c1ccncc1` [(E)-N'-(3'-Nitrobenzylidene)isonicotinohydrazide (3f)], for which the IC50 against 5'-nucleotidase [1] turned out to be 1.9 µM; against 5'-nucleotidase [2], 0.21 µM; in test [3] it was 1.82 µM; in test [4], 7.34 µM.
`O=C(N/N=C/c1ccc(Br)cc1)c1ccncc1` [(E)-N'-(4'-Bromobenzylidene)isonicotinohydrazide (3b)]: the IC50 came to 0.23 µM against 5'-nucleotidase [1], 7.13 µM on 5'-nucleotidase [2], 4.13 µM in test [3] and 9.72 µM in test [4].
For the molecule `O=C(N/N=C/c1ccc(Cl)cc1)c1ccncc1` [(E)-N'-(4'-Chlorobenzylidene)isonicotinohydrazide (3a)], the IC50 against 5'-nucleotidase [1] was determined as 1.67 µM; at 5'-nucleotidase [2], 1.08 µM; in test [4] it was 0.67 µM.
Take `O=C(N/N=C/c1ccc(F)cc1)c1ccncc1` [(E)-N'-(4'-Fluorobenzylidene)isonicotinohydrazide (3c)]: the IC50 against 5'-nucleotidase [1] came out at 6.76 µM; on 5'-nucleotidase [2], 0.44 µM; in test [3], 2.26 µM; in test [4] it was 17.5 µM.
Turning to `COc1cc(/C=N/NC(=O)c2ccncc2)ccc1O` [(E)-N'-(4'-Hydroxy-3-methoxybenzylidene)isonicotinohydrazide (3g)], the IC50 in test [3] is 0.35 µM; in test [4], 1.92 µM.
As for `COc1ccc(/C=N/NC(=O)c2ccncc2)cc1` [(E)-N'-(4'-Methoxybenzylidene)isonicotinohydrazide (3d)], the IC50 at 5'-nucleotidase [1] came to 13.8 µM; on 5'-nucleotidase [2], 0.31 µM; in test [3] it was 0.56 µM; in test [4], 1.74 µM.
Consider `O=C(N/N=C/c1cccnc1)c1ccncc1` [(E)-N'-(Pyridin-3'-ylmethylene)isonicotinohydrazide (3i)], for which the IC50 against 5'-nucleotidase [1] was determined as 0.21 µM; on 5'-nucleotidase [2], 3.01 µM; in test [3], 2.43 µM; in test [4] it was 1.46 µM.
Turning to `O=C(N/N=C/c1ccncc1)c1ccncc1` [(E)-N'-(Pyridin-4'-ylmethylene)isonicotinohydrazide (3h)], the IC50 is 2.12 µM against 5'-nucleotidase [1], 2.89 µM on 5'-nucleotidase [2] and 2.46 µM in test [4].
